Reference: patent US5840684A, “Glycopeptide antibiotic derivatives” (Eli Lilly and Company, priority 1995, dated 1998)
In brackets after ≈: the same amount, converted by molar mass.

What was measured:
Pediococcus pentosaceus = assay: agar dilution MIC, lactic acid bacteria; type: cell-based; conditions: Pediococcus pentosaceus (mean of 2), brain-heart infusion agar
[1] = system: Leuconostoc pseudomesenteroides; assay: agar dilution MIC, lactic acid bacteria; type: cell-based; conditions: brain-heart infusion agar
Streptococcus pyogenes = assay: mouse protection, experimentally-induced infection; type: in vivo; conditions: mice infected with Streptococcus pyogenes, two doses
Lactobacillus confusus = assay: agar dilution MIC, lactic acid bacteria; type: cell-based; conditions: Lactobacillus confusus, brain-heart infusion agar
[2] = system: vancomycin-resistant enterococci; assay: broth micro-dilution, mean geometric MIC; type: cell-based, Enterococcus faecium and Enterococcus faecalis; conditions: enterococci, 24-hour incubation
[3] = system: Enterococcus gallinarum 245; assay: broth micro-dilution MIC; type: cell-based; conditions: Enterococcus gallinarum 245
Protocol: (§1) The formula I compounds have in vitro and in vivo activity against Gram-positive pathogenic bacteria. The MIC's were determined using a standard broth micro-dilution assay.

[4] = system: Staphylococcus epidermidis 270; assay: broth micro-dilution MIC; type: cell-based
Protocol: as §1

Entercoccus faecium 2041 = assay: broth micro-dilution MIC; type: cell-based; conditions: Entercoccus faecium 2041
Protocol: as §1

[5] = system: Staphylococcus haemolyticus 415; assay: broth micro-dilution MIC; type: cell-based
Protocol: as §1

Entercoccus faecium 180 = assay: broth micro-dilution MIC; type: cell-based; conditions: Entercoccus faecium 180
Protocol: as §1

[6] = system: Staphylococcus haemolyticus 105; assay: broth micro-dilution MIC; type: cell-based
Protocol: as §1

[7] = system: vancomycin-susceptible enterococci; assay: broth micro-dilution, mean geometric MIC; type: cell-based, Enterococcus faecium and Enterococcus faecalis; conditions: enterococci, 24-hour incubation
Pediococcus acidilacti = assay: agar dilution MIC, lactic acid bacteria; type: cell-based; conditions: Pediococcus acidilacti (mean of 10), brain-heart infusion agar
Stapylococcus aureus = assay: mouse protection, experimentally-induced infection; type: in vivo; conditions: mice infected with Stapylococcus aureus, two doses
Streptococcus pneumoniae = assay: mouse protection, experimentally-induced infection; type: in vivo; conditions: mice infected with Streptococcus pneumoniae, two doses
Entercoccus faecium 276 = assay: broth micro-dilution MIC; type: cell-based
Protocol: (§2) The MIC's were determined using a standard broth micro-dilution assay.

[8] = system: Staphylococcus aureus SA1199; assay: broth micro-dilution MIC; type: cell-based
Protocol: as §2

[9] = system: Staphylococcus aureus 446; assay: broth micro-dilution MIC; type: cell-based
Protocol: as §2

[10] = system: Staphylococcus aureus SA1199A; assay: broth micro-dilution MIC; type: cell-based
Protocol: as §2

[11] = system: Staphylococcus aureus 491; assay: broth micro-dilution MIC; type: cell-based
Protocol: as §2

[12] = system: Staphylococcus aureus X778; assay: broth micro-dilution MIC; type: cell-based
Protocol: as §2

[13] = system: Staphylococcus aureus X400; assay: broth micro-dilution MIC; type: cell-based
Protocol: as §2

[14] = system: Staphylococcus aureus 447; assay: broth micro-dilution MIC; type: cell-based
Protocol: as §2

[15] = system: Entercoccus faecium 180-1; assay: broth micro-dilution MIC; type: cell-based
Protocol: as §2

[16] = system: Leuconostoc mesenteroides; assay: agar dilution MIC, lactic acid bacteria; type: cell-based; conditions: Leuconostoc mesenteroides (mean of 4), brain-heart infusion agar
Leuconostoc lactis = assay: agar dilution MIC, lactic acid bacteria; type: cell-based; conditions: Leuconostoc lactis (mean of 2), brain-heart infusion agar
[17] = system: Staphylococcus aureus SA1199B; type: cell-based
Protocol: as §2

[18] = system: Staphylococcus aureus S13E; type: cell-based
Protocol: as §2

Leuconostoc citreum = assay: agar dilution MIC, lactic acid bacteria; type: cell-based; conditions: brain-heart infusion agar
[19] = system: Haemophilus influenzae RD; assay: broth micro-dilution MIC; type: cell-based; conditions: Haemophilus influenzae RD
Protocol: as §1

[20] = system: Staphylococcus aureus 489; assay: broth micro-dilution MIC; type: cell-based
Protocol: as §2

Row | SMILES | MIC (Pediococcus pentosaceus) | ED50 (Streptococcus pyogenes) | MIC (Lactobacillus confusus) | mean geometric MIC, Vancomycin Resistant Strains [2] | MIC [4] | MIC [5] | MIC [6] | mean geometric MIC, Vancomycin Sensitive Strains [7] | MIC (Pediococcus acidilacti) | ED50 (Stapylococcus aureus) | ED50 (Streptococcus pneumoniae) | MIC (Entercoccus faecium 276) | MIC [8] | MIC [9] | MIC [12] | MIC [13] | MIC [14] | MIC [15] | MIC [16] | MIC (Leuconostoc lactis) | also measured
1 | CNC(CC(C)C)C(=O)NC1C(=O)NC(CC(N)=O)C(=O)NC2C(=O)NC3C(=O)NC(C(=O)NC(C(=O)O)c4cc(O)cc(O)c4-c4cc3ccc4O)C(OC3CC(C)(N)C(O)C(C)O3)c3ccc(c(Cl)c3)Oc3cc2cc(c3OC2OC(CO)C(O)C(O)C2OC2CC(C)(NCc3ccc(C=Cc4ccccc4)cc3)C(O)C(C)O2)Oc2ccc(cc2Cl)C1O (stereo not shown) [Compound 29] | 8.0 µg/mL (≈ 4.48 µM) | 0.1 mg/kg/2 | 8 µg/mL (≈ 4.48 µM) | 0.21 µg/mL | 0.5 µg/mL (≈ 0.28 µM) | 1 µg/mL (≈ 0.56 µM) | 4 µg/mL (≈ 2.24 µM) | 0.031 µg/mL | 4.0 µg/mL (≈ 2.24 µM) | 0.088 mg/kg/2 | 0.054 mg/kg/2 | 0.25 µg/mL (≈ 0.14 µM) | 0.25 µg/mL (≈ 0.14 µM) | 1 µg/mL (≈ 0.56 µM) | ≤ 0.06 µg/mL | 0.25 µg/mL (≈ 0.14 µM) | 0.25 µg/mL (≈ 0.14 µM) | ≤ 0.06 µg/mL | 6.7 µg/mL (≈ 3.75 µM) | 5.7 µg/mL (≈ 3.19 µM) | MIC [1]: 16 µg/mL (≈ 8.97 µM); MIC [3]: 0.25 µg/mL (≈ 0.14 µM); MIC (Entercoccus faecium 2041): 0.25 µg/mL (≈ 0.14 µM); MIC (Entercoccus faecium 180): 0.25 µg/mL (≈ 0.14 µM); MIC [10]: ≤ 0.06 µg/mL; MIC [11]: 0.25 µg/mL (≈ 0.14 µM); MIC [17]: 0.25 µg/mL (≈ 0.14 µM); MIC [18]: 1 µg/mL (≈ 0.56 µM); MIC (Leuconostoc citreum): 32 µg/mL (≈ 17.9 µM)
2 | CNC(CC(C)C)C(=O)NC1C(=O)NC(CC(N)=O)C(=O)NC2C(=O)NC3C(=O)NC(C(=O)NC(C(=O)O)c4cc(O)cc(O)c4-c4cc3ccc4O)C(OC3CC(C)(N)C(O)C(C)O3)c3ccc(c(Cl)c3)Oc3cc2cc(c3OC2OC(CO)C(O)C(O)C2OC2CC(C)(NCc3ccc4c(c3)Cc3ccccc3-4)C(O)C(C)O2)Oc2ccc(cc2Cl)C1O (stereo not shown) [Compound 32] | 16 µg/mL (≈ 9.04 µM) | 0.034 mg/kg/2 | 16 µg/mL (≈ 9.04 µM) | 0.50 µg/mL | 1 µg/mL (≈ 0.565 µM) | 4 µg/mL (≈ 2.26 µM) | 4 µg/mL (≈ 2.26 µM) | 0.089 µg/mL | 12.1 µg/mL (≈ 6.83 µM) | 0.055 mg/kg/2 | 0.039 mg/kg/2 | 0.125 µg/mL (≈ 0.0706 µM) | 1 µg/mL (≈ 0.565 µM) | 1 µg/mL (≈ 0.565 µM) | 0.5 µg/mL (≈ 0.282 µM) | 0.5 µg/mL (≈ 0.282 µM) | 0.5 µg/mL (≈ 0.282 µM) | ≤ 0.06 µg/mL | 16 µg/mL (≈ 9.04 µM) | 16 µg/mL (≈ 9.04 µM) | MIC [19]: > 64 µg/mL; MIC [10]: ≤ 0.06 µg/mL; MIC [20]: 1 µg/mL (≈ 0.565 µM); MIC [18]: 1 µg/mL (≈ 0.565 µM); MIC (Leuconostoc citreum): 64 µg/mL (≈ 36.1 µM)
3 | CNC(CC(C)C)C(=O)NC1C(=O)NC(CC(N)=O)C(=O)NC2C(=O)NC3C(=O)NC(C(=O)NC(C(=O)O)c4cc(O)cc(O)c4-c4cc3ccc4O)C(OC3CC(C)(N)C(O)C(C)O3)c3ccc(c(Cl)c3)Oc3cc2cc(c3OC2OC(CO)C(O)C(O)C2OC2CC(C)(NCc3ccc(-c4ccc(-c5ccccc5)cc4)cc3)C(O)C(C)O2)Oc2ccc(cc2Cl)C1O (stereo not shown) [Compound 36] | 16 µg/mL (≈ 8.72 µM) | 0.28 mg/kg/2 | 32 µg/mL (≈ 17.4 µM) | 0.25 µg/mL | 2 µg/mL (≈ 1.09 µM) | 8 µg/mL (≈ 4.36 µM) | 4 µg/mL (≈ 2.18 µM) | 0.21 µg/mL | 9.2 µg/mL (≈ 5.01 µM) | 0.19 mg/kg/2 | 0.31 mg/kg/2 | 2 µg/mL (≈ 1.09 µM) | 4 µg/mL (≈ 2.18 µM) | 8 µg/mL (≈ 4.36 µM) | 2 µg/mL (≈ 1.09 µM) | 4 µg/mL (≈ 2.18 µM) | 2 µg/mL (≈ 1.09 µM) | ≤ 0.06 µg/mL | 16 µg/mL (≈ 8.72 µM) | 16 µg/mL (≈ 8.72 µM) | MIC [1]: 32 µg/mL (≈ 17.4 µM); MIC (Entercoccus faecium 2041): 1 µg/mL (≈ 0.545 µM); MIC (Entercoccus faecium 180): 0.25 µg/mL (≈ 0.136 µM); MIC [20]: 2 µg/mL (≈ 1.09 µM); MIC [11]: 1 µg/mL (≈ 0.545 µM); MIC [17]: 4 µg/mL (≈ 2.18 µM); MIC [18]: 2 µg/mL (≈ 1.09 µM); MIC (Leuconostoc citreum): 32 µg/mL (≈ 17.4 µM)
